# Measured values taken from US5312900A, “23K protein with binding specificity for queuine” (La Jolla Cancer Research Foundation, priority 1991, dated 1994).
# Entries after “also recorded” stand apart in the source; their conditions may differ.
# Tests used:
# [1] = test system: ^125 I-Queb (23K protein); assay: Binding of ^125 I-Queb to ligand-sepharose; design: species or system bovine; settings: for Unbound CPM: 1×10^6 cpm ^125 I-Queb incubated 2 hours with ligand-sepharose, CPM in supernatant and three PBS/Ca++; for Unbound CPM / Bound CPM: Mg++ washes, n = 3; for Bound CPM: CPM associated with sepharose after removal of supernatant and three PBS/Ca++, ± S.D.; for % Bound: share of available ^125 I-Queb bound to ligand-sepharose; for Binding of ^125 I-Queb to ligand-sepharose and its elution (in words): successive elution with 20mM EDTA, 1M NaCl, 1M urea, 8M urea
# Procedure: Queb was isolated from the 15% SDS-PA gels by electroelution, and labelled with ^125 I according to Example IV. […] Equal quantities (1×10^6 cpm, 50 μl ) of ^125 I-Queb were incubated for 2 hours with equal aliquots (50 μl ) of ligand-sepharose. The buffer was then isolated and the sepharose was washed with PBS until less than 1×10^4 cpm were measured in the eluent.
# [2] = test system: Queb; assay: Affinity chromatography of BAF proteins on ligand-sepharose with stepwise elution; assay type: binding, bovine; settings: third trimester BAF; elution with 20 mM EDTA, 1M NaCl, 1M urea, 8M urea
# Text: The isolation of Queuine binding factors was completed using affinity chromatography. CNBr-activated sepharose 4B (Pharmacia) was coupled with Queuine, guanosine or glycine using the manufacturers described procedure. The coupling ratio of Queuine to the amount of dry sepharose was 2.7 μmole to 0.1 g and the ratio of guanosine to sepharose was 1.3 μmole to 0.1 g. The procedure used targeted coupling of Queuine and guanosine at the 2-amino group of the purine ring.
# The affinity-sepharose was equilibrated with phosphate buffered saline (PBS) containing 2 mM CaCl2, and MgCl2 contained in a glass pipette. The sample was allowed to flow through the column containing the affinity-sepharose, and the bound material was eluted with a successive series of PBS buffers (pH 7.5) containing: 20 mM EDTA, 1M NaCl, 1M urea, 8M urea. Once eluted, the protein was precipitated with 95% ethanol containing 0.5M potassium acetate, washed twice in 95% ethanol, and then solubilized in SDS-PAGE sample buffer, 0.25M tris-HCl, pH 6.8; 10% glycerol; 2% SDS; 0.0025% bromophenol blue.
# Third trimester BAF (50 ml) was passed over a 0.4 ml Queuine-sepharose column. The column was then washed with PBS containing 2mM of CaCl2 and MgCl2 until the eluent contained<0.01 OD (280 nm). […] Eluent fractions (200 μl ) were collected and spectrophotometrically monitored (280 nm). […]
# [3] = test system: HL 60 cells (ATCC No. CCL 240); assay: Cell growth of HL 60 cells; assay type: cell-based
# [4] = test system: HL-60 cells; assay: Differentiation response of HL-60 cells; assay type: cell-based; settings: TPA-induced differentiation where stated
# [5] = test system: ^125 I-Queb; assay: Effect of TPA on ^125 I-Queb binding to Queuine-sepharose; design: species or system bovine; settings: TPA at 50% of the concentration of Queuine bound to sepharose
# Procedure: TPA, at 50% of the concentration of the Queuine bound to sepharose, was evaluated for its ability to antagonize ^125 I-Queb binding to Queuine-sepharose. FIG. 3A illustrates the ^125 I-Queb binding without TPA and FIG. 3B illustrates the results with TPA. […] However, the elution patterns of ^125 I-Queb from the Queuine-sepharose was altered in the TPA samples.
SMILES,Unbound CPM [1],Bound CPM [1],% Bound [1] [%],Binding of ^125 I-Queb to ligand-sepharose and its elution (in words) [1],Binding of ^125 I-Queb to ligand-sepharose and its elution (in words) ([1]; listed as guanine),Binding of Queb from BAF to ligand-sepharose column [2],Effect on cell growth (in words) [3],"IC50 ([3]; Homo sapiens, read-out: ID50, inhibition of cell growth) [µM]",Effect on differentiation response (in words) [4],Effect on amount of ^125 I-Queb bound to Queuine-sepharose (in words) [5],Effect on elution of ^125 I-Queb from Queuine-sepharose (in words) ([5]; without TPA 8 M urea needed)
NCC(=O)O [Glycine],"802,682 CPM","70,500 ± 8,800 CPM",8.08,minimal amount,,,,,,,
Nc1nc2c(ncn2[C@@H]2O[C@H](CO)[C@@H](O)[C@H]2O)c(=O)[nH]1 [Guanosine],"843,385 CPM","104,740 ± 12,885 CPM",11.05,No ^125 I-Queb was found eluted,minimal amount,no presence of Queb that bound with high affinity; also recorded: did not bind,,,,,
Nc1nc2[nH]cc(CN[C@H]3C=C[C@H](O)[C@@H]3O)c2c(=O)[nH]1 [Queuine],"404,060 CPM","851,350 ± 91,830 CPM",,only eluted by 8M urea,,eluted only under stringent elution conditions of 8 M urea; also recorded: high binding affinity,both stimulate and inhibit,7.8,modulate the ability of cells to respond to differentiation signals; also recorded: markedly sensitized HL-60 cells to a TPA-induced differentiation response; also recorded: inhibit TPA when used concurrently,,
"CCCCCCCCCCCCCC(=O)O[C@@H]1[C@@H](C)[C@@]2(O)[C@@H](C=C(CO)C[C@]3(O)C(=O)C(C)=C[C@@H]23)[C@@H]2C(C)(C)[C@]12OC(C)=O [TPA, 12-O-tetradecanoyl-phorbol-13-acetate]",,,,,,,,,,did not quantitatively alter,20 mM EDTA was able to elute and eluted under milder conditions of 20 mM EDTA
